These results are taken from ChEMBL document CHEMBL3217407, “Adamantane substituted aminocyclitols as pharmacological chaperones for Gaucher disease” (Medchemcomm, 2013).

As a reminder, the inhibition is the share of the control response that was lost under treatment. Usually Ki stands for the dissociation constant of the complex between target and ligand, obtained from inhibition or displacement. What is called IC50 is the concentration that gives 50% inhibition.

Activity calls are given as the source filed them. No cut-off for these calls is given here.

The target in data set [1] is T1, Lysosomal acid glucosylceramidase (Homo sapiens) (UniProt P04062).
T1 sequence (whole entry): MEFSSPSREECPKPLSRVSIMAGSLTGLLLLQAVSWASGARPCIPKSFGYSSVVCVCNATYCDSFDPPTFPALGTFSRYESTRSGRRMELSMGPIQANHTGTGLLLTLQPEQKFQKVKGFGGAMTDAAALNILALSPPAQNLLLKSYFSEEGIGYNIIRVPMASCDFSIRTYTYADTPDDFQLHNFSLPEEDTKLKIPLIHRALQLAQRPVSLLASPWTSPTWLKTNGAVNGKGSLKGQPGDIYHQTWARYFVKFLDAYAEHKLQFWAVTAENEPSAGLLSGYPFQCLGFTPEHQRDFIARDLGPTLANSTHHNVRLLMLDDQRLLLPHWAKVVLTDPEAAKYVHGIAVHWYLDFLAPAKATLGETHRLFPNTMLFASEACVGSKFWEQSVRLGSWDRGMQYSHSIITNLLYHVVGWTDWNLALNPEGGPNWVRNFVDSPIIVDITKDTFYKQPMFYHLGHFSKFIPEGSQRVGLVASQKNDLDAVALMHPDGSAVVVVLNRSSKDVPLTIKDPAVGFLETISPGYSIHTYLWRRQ
The following applies: 50 uM.
Description: Inhibition of imiglucerase in human fibroblasts using 4-methylumbelliferyl-beta-D-glucopyranoside as substrate at 50 uM after 24 hrs

Data set [2] can be described thus: Cytotoxicity against human fibroblasts up to 300 uM after 24 hrs by MTT assay. In kind it is cell-based. The following applies: fibroblast.
Data set [3] has as its target Alpha-galactosidase (Coffea arabica) (UniProt Q42656). Briefly: Inhibition of coffee beans alpha-galactosidase at 200 uM.
Data set [4] concerns the target T2, Beta-galactosidase (Bos taurus) (UniProt Q58D55).
T2 sequence (whole entry): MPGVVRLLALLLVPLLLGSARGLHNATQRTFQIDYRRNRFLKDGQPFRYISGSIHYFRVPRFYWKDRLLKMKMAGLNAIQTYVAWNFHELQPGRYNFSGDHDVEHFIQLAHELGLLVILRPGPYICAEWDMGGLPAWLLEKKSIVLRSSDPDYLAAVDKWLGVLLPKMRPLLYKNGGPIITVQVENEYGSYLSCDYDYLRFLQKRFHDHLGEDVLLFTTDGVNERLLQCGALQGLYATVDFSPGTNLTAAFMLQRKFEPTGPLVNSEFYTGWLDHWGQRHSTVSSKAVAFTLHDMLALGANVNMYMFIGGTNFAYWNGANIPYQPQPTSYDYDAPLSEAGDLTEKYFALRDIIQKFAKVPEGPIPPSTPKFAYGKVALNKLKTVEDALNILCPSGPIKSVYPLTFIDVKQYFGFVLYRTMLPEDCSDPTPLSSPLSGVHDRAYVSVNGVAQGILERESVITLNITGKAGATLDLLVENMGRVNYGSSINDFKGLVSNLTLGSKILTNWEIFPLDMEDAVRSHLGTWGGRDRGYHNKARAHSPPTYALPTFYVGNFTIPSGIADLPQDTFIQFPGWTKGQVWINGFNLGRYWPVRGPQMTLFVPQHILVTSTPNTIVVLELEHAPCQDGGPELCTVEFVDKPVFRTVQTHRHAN
The data set is described as follows: Inhibition of bovine liver beta-galactosidase at 200 uM.

The next data set relates to Saccharomyces cerevisiae. Briefly: Inhibition of yeast alpha-glucosidase at 200 uM.
Data set [5] has as its target T1, Lysosomal acid glucosylceramidase (Homo sapiens). The data set is described as follows: Ratio of IC50 for human recombinant imiglucerase at pH 5.2 to IC50 for human recombinant imiglucerase at pH 7.
Data set [6] has the same target. The data set is described as follows: Inhibition of imiglucerase in human fibroblasts using 4-methylumbelliferyl-beta-D-glucopyranoside as substrate at 200 uM after 24 hrs.
For data set [7], the target named is T3, Lysosomal acid glucosylceramidase (Homo sapiens, UniProt P04062).
T3 sequence (P04062 whole entry): T1 sequence (whole entry)
Briefly: Competitive inhibition of human recombinant imiglucerase using 4-methylumbelliferyl-beta-D-glucopyranoside as substrate preincubated for 30 mins at pH 7 before substrate addition measured after 10 mins by Lineweaver-Burk or Dixon plot analysis.

In data set [8] the target is T3, Lysosomal acid glucosylceramidase. Briefly: Competitive inhibition of human recombinant imiglucerase using 4-methylumbelliferyl-beta-D-glucopyranoside as substrate preincubated for 30 mins at pH 5.2 before substrate addition measured after 10 mins by Lineweaver-Burk or Dixon plot analysis.
Data set [9] shares this target. Briefly: Inhibition of human recombinant imiglucerase using 4-methylumbelliferyl-beta-D-glucopyranoside as substrate preincubated for 30 mins at pH 7 before substrate addition measured after 10 mins.
Data set [10] shares this target. Briefly: Inhibition of human recombinant imiglucerase using 4-methylumbelliferyl-beta-D-glucopyranoside as substrate preincubated for 30 mins at pH 5.2 before substrate addition measured after 10 mins.

Alpha-galactosidase (Coffea arabica), sequence (Q42656 16-378 limits assumed): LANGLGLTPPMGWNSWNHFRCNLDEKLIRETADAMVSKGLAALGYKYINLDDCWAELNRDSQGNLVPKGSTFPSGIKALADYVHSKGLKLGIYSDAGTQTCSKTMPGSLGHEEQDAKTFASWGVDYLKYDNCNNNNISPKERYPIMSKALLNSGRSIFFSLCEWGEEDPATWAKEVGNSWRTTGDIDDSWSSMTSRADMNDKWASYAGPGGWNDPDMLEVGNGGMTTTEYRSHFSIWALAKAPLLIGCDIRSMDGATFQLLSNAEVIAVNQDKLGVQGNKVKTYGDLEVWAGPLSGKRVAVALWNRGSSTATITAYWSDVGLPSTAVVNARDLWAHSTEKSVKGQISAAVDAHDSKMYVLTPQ

Turning to `CCCCCCCCCN[C@@H]1[C@H](O)[C@H](O)[C@@H](O)[C@H](O)[C@H]1O`, in data set [1], the inhibition was 95%.
As for `O=C(CCCN[C@@H]1[C@H](O)[C@H](O)[C@@H](O)[C@H](O)[C@H]1O)NC12CC3CC(CC(C3)C1)C2`, the Activity entry in data set [2] is reported as “Non-toxic”. Besides, the inhibition result (in [3]; in the data set with Saccharomyces cerevisiae) was “inactive” throughout. For the same compound, the inhibition in [4] stood at 24%; in [6], 1%. The Ratio IC50 in data set [5] was 12. The values for the Ki in [7] and in [8] were 0.25 µM and 2.9 µM, respectively. For the same compound, the figures for the IC50 in data set [9] and in [10] were 0.37 µM and 5.4 µM, respectively.
In data set [1], `CCCCCCCCCN[C@H]1[C@H](O)[C@@H](O)[C@H](O)[C@@H](O)[C@@H]1O` came in with an inhibition of 29%.
As for `O=C(CCCN[C@H]1[C@H](O)[C@@H](O)[C@H](O)[C@@H](O)[C@@H]1O)NC12CC3CC(CC(C3)C1)C2`, in data set [2], the Activity entry is “Non-toxic”. The inhibition result (in data set [3]; in [4]; with Saccharomyces cerevisiae) was “inactive” each time. Moreover, the Ratio IC50 in data set [5] was 4. Also, the inhibition in [6] is 0%. For the same compound, the Ki in data set [7] worked out at 45 µM; in data set [8], 183 µM. The results for the IC50 in [9] and in data set [10] were 58 µM and 257 µM, respectively.
